2 compounds from patent EP0348399B1, “SORBIN AND PEPTIDE DERIVATIVES WHICH INCREASE ABORPTION BY THE MUCOUS MEMBRANES” (INSTITUT NATIONAL DE LA SANTE ET DE LA RECHERCHE MEDICALE …, priority 1988, dated 1992) can be followed below.

Data set [1] can be described thus: Arterial blood pressure measured by carotid catheterisation. The class given is in vivo. The conditions noted are these: measured by catheterisation of the carotid, result in words.
Data set [2] deals with rat. As to the kind of experiment: Water and electrolyte movements in ligated intestinal loops of the anaesthetised rat, peptides given by intravenous infusion. The conditions noted are these: rat duodenal loop, i.v. infusion, dose 50 pmol/100g, 1 h contact; controls (TEMOINS) = 0; (-) absorption, (+) secretion; mean, groups of 8 or more. The class given is in vivo. Here is the method: Chez le rat privé d'aliment depuis 45 heures mais recevant de l'eau à volonté, une anesthésie est assurée par le pentobarbital sodique, un cathéter est placé sur une jugulaire, trois anses duodénale, jéjunale et iléale sont constituées entre deux ligatures. Un ml de solution test contenant 70 mM de NaCl, 5,2 mM de KCl, […] de CaCl₂, 10 mM de CO₃Na ET 136 mM de mannitol est instillé dans chaque anse, le PEG 4000 marqué au ³H est utilisé comme marqueur non absorbable, le ²²Na ou le ³⁶Cl comme marqueurs des flux bidirectionnels de sodium ou de chlore. La sorbine ou les peptides de synthèse sont administrés par voie veineuse dans du NaCl à 0,9%, à un débit de 3 ml/h. Après une heure de contact, le liquide restant dans la lumière de l'anse est collecté, le volume et les concentrations de Na, Ca, K, Cl et HCO₃ ainsi que la radioactivité liée au tritium, au chlore ou au sodium sont mesurés.
L'absorption est indiquée par un signe (-), la sécrétion par un signe (+). les résultats concernent des groupes de 8 animaux ou plus M ± SEM ^. P<0.05 ^..P<0.01

`CC[C@H](C)[C@H](NC(=O)[C@H](Cc1ccc(O)cc1)NC(=O)[C@@H](NC(=O)[C@H](CCCNC(=N)N)NC(=O)[C@@H](N)CC(=O)O)C(C)C)C(=O)N[C@@H](Cc1cnc[nH]1)C(=O)N1CCC[C@H]1C(=O)N[C@@H](Cc1ccccc1)C(=O)O` [ANGIOTENSINE II, angiotensine II]: the “tension artérielle” value in data set [1] is “augmentation de la tension artérielle”.
As to HEPTAPEPTIDE, in data set [2], the Cl is given as -36,1 µeq, the Eau was -0,20 ml and the Na was -30,7 µeq.
